Measured values from patent publication US20230203060A1 (GENFLEET THERAPEUTICS (SHANGHAI) INC., priority 2020, published 2023).

Columns and labels:
[1] = system: KRAS G12C mutant MIA PaCa-2 cells; assay: Cell proliferation inhibition experiment, 3D spheroid, CellTiter-Glo, MIA PaCa-2; assay type: cell-based, human; details: Homo sapiens, MIA PaCa-2, 120 h, 3D cell model in 384-well spheroid plate, 5 days, CellTiter-Glo; read-out: MIA-PaCa2 IC50
Procedure, shortened: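 200 MIA PaCa-2 cells/well grown overnight as 3D spheroids, then exposed to 3.16-fold compound dilutions (0.1% DMSO final) for 5 days. Viability read by CellTiter-Glo luminescence; inhibition calculated against DMSO and medium-only controls, and IC50 fitted by four-parameter model.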

[2] = target: T1, KRAS G12C (Homo sapiens, UniProt P01116, G12C); assay: KRAS G12C NEA-HTRF experiment (SOS1-catalyzed displacement of GDP by GTP); assay type: biochemical
T1 construct: purchased Reactionbiology
Procedure, shortened: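 His-tagged KRAS G12C preloaded with DY647-GDP was preincubated 15 min at 20 °C with compound, then exchanged with SOS1 (0.2 μM working solution) and GTP (200 μM working solution) for 2 h at 20 °C in the dark. HTRF 665/615 nm ratio with anti-His-Tb was normalised to T0 and no-compound controls; IC50 by four-parameter fit.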

T1 sequence (P01116 1-188 isoform P01116-2 G12C): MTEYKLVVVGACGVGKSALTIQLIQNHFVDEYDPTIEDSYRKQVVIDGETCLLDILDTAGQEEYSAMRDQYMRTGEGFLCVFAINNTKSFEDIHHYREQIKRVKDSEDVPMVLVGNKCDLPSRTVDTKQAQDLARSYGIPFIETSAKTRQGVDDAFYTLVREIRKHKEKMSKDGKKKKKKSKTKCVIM

IC50 [1] | IC50 [2] | SMILES
10.8 nM | 64 nM | C=CC(=O)N1CCN2C(=O)c3c(N4CC(O)CC4(C)C)nc(-c4c(O)cccc4F)c(F)c3OC[C@H]2C1 (stereo partly drawn) [Z256, (6aR)-8-acryloyl-4-fluoro-3-(2-fluoro-6-hydroxyphenyl)-1-(4-hydroxy-2,2-dimethylpyrrolidin-1-yl)-6,6a,7,8,9,10-hexahydro-12H-pyrazino[2,1-c]pyrido[3,4-f][1,4]oxazepin-12-one]
1.1 nM | 5 nM | C=CC(=O)N1CCN2C(=O)c3c(N4CC(N(C)C5COC5)CC4(C)C)nc(-c4c(O)cccc4F)c(Cl)c3OC[C@H]2C1 (single isomer, unassigned) [Z331-1]
18 nM | 88 nM | C=CC(=O)N1CCN2C(=O)c3c(N4CC[C@@H]4C)nc(-c4c(O)cccc4F)c(Cl)c3OC[C@H]2C1 [Z68, (6aR)-8-acryloyl-1-((S)-2-methylazetidin-1-yl)-4-chloro-3-(2-fluoro-6-hydroxyphenyl)-6,6a,7,8,9,10-hexahydro-12H-pyrazino[2,1-c]pyrido[3,4-f][1,4]oxazepin-12-one]
8.8 nM | 14 nM | C=CC(=O)N1CCN2C(=O)c3c(N4CC(=O)N(C)CC4C)nc(-c4c(O)cccc4F)c(Cl)c3OC[C@H]2C1 (single isomer, unassigned) [Z221-1]
11.3 nM | 93 nM | C=CC(=O)N1CCN2C(=O)c3c(N4CCN(CCO)C[C@@H]4C)nc(-c4c(O)cccc4F)c(Cl)c3OC[C@H]2C1 [Z257, (6aR)-8-acryloyl-4-chloro-3-(2-fluoro-6-hydroxyphenyl)-1-((S)-4-(2-hydroxyethyl)-2-methylpiperazin-1-yl)-6,6a,7 ,8,9,10-hexahydro-12H-pyrazino[2,1-c]pyrido[3,4-f][1,4]oxazepin-12-one]
